For one data set, the target named is T1, hERG potassium channel (Homo sapiens, UniProt Q12809).
T1 construct: expressed in transfected cells
In words: hERG potassium channel activity assay, manual whole-cell patch clamp. It counts as cell-based. The note with it: IC50, inhibition of hERG potassium channel current, CHO cells stably expressing hERG. The text has this: 2.1 Experimental preparation: Experimental platform: manual electrophysiological patch-clamp system; Cell line: Chinese hamster ovary (CHO) cell line stably expressing hERG potassium channel.
2.2. Experimental method: In Chinese Hamster Ovary (CHO) cells stably expressing hERG potassium channel, the whole-cell patch-clamp technique was used to record hERG potassium channel current at room temperature. The glass microelectrodes were pulled from glass electrode blanks (BF150-86-10, Sutter) by a glass microelectrode puller. The tip resistance of the microelectrodes after being filled with intrapipette solution was about 2-5 MΩ. The glass microelectrodes were connected to the patch-clamp amplifier by inserting them into an amplifier probe. The clamping voltage and data recording were controlled and recorded by the pClamp 10 software through a computer, with a sampling frequency of 10 kHz and a filtering frequency of 2 kHz. After the whole cell records were obtained, the cells were clamped at -80 mV, and the step voltage that induced the hERG potassium current (I hERG) was depolarised from -80 mV to +20 mV for 2 s, then repolarised to -50 mV, and returned to -80 mV after 1 s. […]
Compound IC50 was calculated using GraphPad Prism 5 software by fitting according to the following equation: Y = Bottom + (Top−Bottom)/(1+10^(∧)((LogIC50−X)×HillSlope)) [formula] […]
(hERG is a cardiac potassium channel; its block is linked to QT prolongation.)

Data set [1] in a line: Liver microsomal stability assay, rat liver microsomal model. It counts as in vitro ADME. The note with it: rat liver microsomes, 1 µM, 37°C, NADPH. Here is the method: In this experiment, liver microsomes of five species, including human, monkey, dog, rat and mouse, were used as in vitro models to evaluate the metabolic stability of the test compound.
At 37°C, 1 µM of the test compound was co-incubated with microsomal protein and coenzyme NADPH. At given time points of the reaction (5 min, 10 min, 20 min, 30 min, and 60 min), the reaction was terminated by adding ice-cold acetonitrile containing an internal standard. The LC-MS/MS method was used to measure the concentration of the test compound in the sample. T1/2 was calculated using the ln value of the percentage of drug remaining in the incubation system and the incubation time. In addition, the intrinsic clearance in liver microsomes CLint(mic) and the intrinsic clearance in liver CLint(Liver) were further calculated. Table 7 Results of test compounds in rat liver microsomal model
A general note: Liver microsomes are vesicles of endoplasmic reticulum, rich in cytochrome P450 enzymes.

A further data set deals with T2, AAK1 (Homo sapiens, UniProt Q2M2I8).
T2 construct: purchased Signalchem A01-11G-10
T2 sequence (Q2M2I8 27-365 limits assumed): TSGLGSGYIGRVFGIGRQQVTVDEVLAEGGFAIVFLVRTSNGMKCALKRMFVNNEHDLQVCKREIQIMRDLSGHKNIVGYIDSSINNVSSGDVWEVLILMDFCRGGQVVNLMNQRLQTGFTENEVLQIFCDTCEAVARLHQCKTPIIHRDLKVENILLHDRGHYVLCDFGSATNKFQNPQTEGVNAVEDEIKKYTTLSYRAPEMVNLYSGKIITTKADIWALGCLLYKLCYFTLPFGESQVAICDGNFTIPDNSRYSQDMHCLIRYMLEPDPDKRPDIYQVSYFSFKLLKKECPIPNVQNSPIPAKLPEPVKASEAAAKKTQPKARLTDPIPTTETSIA
Briefly: In vitro AAK1 enzyme activity assay (ADP-Glo). The data set is classed as biochemical. The note with it: inhibitory activity against AAK1. How it is done:
Compound stock solution (concentration: 10 mM, dissolved in DMSO) was diluted with DMSO to 0.2 mM and then diluted with DMSO in 5-fold gradient to obtain compound solutions with 10 concentrations. Subsequently, the compound solutions with different concentrations were diluted 50-fold in 1× kinase reaction buffer (containing 40 mM Tris, 20 mM MgCl2, 0.1% BSA and 0.5 mM DTT) for later use. AAK1 (Signalchem, Cat# A01-11G-10) was diluted with 1× kinase reaction buffer to 2-fold the final concentration (final concentrations: 30 nM and 28 nM). AAK1 was added to a 384-well white plate at 2 µL/well, and the compounds were then added at 1 µL/well. The plate was sealed with a plate-sealing film, centrifuged at 1000 rpm for 30 seconds and then placed at room temperature for 10 minutes. […] The RLU (Relative luminescence unit) signal values were read using a Biotek multimode microplate reader, and the percent inhibition was calculated according to the following formula: [1-(LUM compound-LUM positive control) / (LUM negative control-LUM positive control)] × 100. IC50 values were calculated using Graphpad 7.0 software using a four-parameter non-linear fit equation. […]
On the technique in general: ADP-Glo first removes unused ATP, then detects ADP through luciferase.

The nature of data set [2]: Pharmacokinetic assay in rats. The data set is classed as in vivo, SD rats. The note with it: rat, po, plasma, Intragastric administration (5 mg/kg). Here is the method: 4.1 Experimental animals: Male SD rats, about 220 g, 6-8 weeks old, 6 rats/compound, purchased from Chengdu Dossy Experimental Animals Co., Ltd.
4.2 Experimental design: on the day of the experiment, 6 SD rats were randomly grouped according to their body weights. The animals were fasted with water available for 12-14 h one day before the administration, and were fed 4 h after the administration. Table 5 Administration information
Before and after the administration, 0.1 ml of blood was taken from the orbit under isoflurane anaesthesia and placed in an EDTAK2 centrifuge tube. The tube was centrifuged at 5000 rpm at 4°C for 10 min, and plasma was collected. Blood sampling time points for the intravenous administration group: 0, 5 min, 15 min, 30 min, 1 h, 2 h, 4 h, 6 h, 8 h and 24 h; blood sampling time points for the intragastric administration group: 0, 5 min, 15 min, 30 min, 1 h, 2 h, 4 h, 6 h, 8 h and 24 h. Before analysis and detection, all samples were stored at -80°C.

A short description of data set [3]: Pharmacokinetic assay in mice. It counts as in vivo, ICR mice. The note with it: plasma. Here is the method: 3.1 Experimental animals: Male ICR mice, 20-25 g, 6 mice/compound, purchased from Chengdu Dossy Experimental Animals Co., Ltd.
3.2 Experimental design: on the day of the experiment, the ICR mice were randomly grouped according to their body weights. The animals were fasted with water available for 12-14 h one day before the administration, and were fed 4 h after the administration. Table 3 Administration information
vehicle for intravenous administration: 5%DMA+5%HS-15+90%NS; vehicle for intragastric administration: 0.5% MC; before and after administration, 0.06 mL of blood was taken from the orbit under isoflurane anaesthesia and placed in an EDTAK2 centrifuge tube. The tube was centrifuged at 5000 rpm at 4°C for 10 min, and plasma was collected. The blood sampling time points for both the intravenous administration group and intragastric administration group were 0, 5 min, 15 min, 30 min, 1 h, 2 h, 4 h, 7 h and 24 h. Before analysis and detection, all samples were stored at -80°C, and the samples were quantitatively analysed by LC-MS/MS. Table 4 Pharmacokinetic parameters of test compounds in plasma of mice

For data set [4] the following is noted: cited from earlier work.
For data set [5] the following is noted: cited from earlier work. This is another data set of the same source.
The conditions of data set [6]: mice; cited from earlier work.
The conditions of data set [7]: mice; cited from earlier work. This is another data set of the same source.
In the next data set the test system is PC12 cells. Particulars: cited from earlier work.
Where [8] appears, read: Intragastric administration (10 mg/kg), 10 mg/kg.

T1 sequence (Q12809 whole entry): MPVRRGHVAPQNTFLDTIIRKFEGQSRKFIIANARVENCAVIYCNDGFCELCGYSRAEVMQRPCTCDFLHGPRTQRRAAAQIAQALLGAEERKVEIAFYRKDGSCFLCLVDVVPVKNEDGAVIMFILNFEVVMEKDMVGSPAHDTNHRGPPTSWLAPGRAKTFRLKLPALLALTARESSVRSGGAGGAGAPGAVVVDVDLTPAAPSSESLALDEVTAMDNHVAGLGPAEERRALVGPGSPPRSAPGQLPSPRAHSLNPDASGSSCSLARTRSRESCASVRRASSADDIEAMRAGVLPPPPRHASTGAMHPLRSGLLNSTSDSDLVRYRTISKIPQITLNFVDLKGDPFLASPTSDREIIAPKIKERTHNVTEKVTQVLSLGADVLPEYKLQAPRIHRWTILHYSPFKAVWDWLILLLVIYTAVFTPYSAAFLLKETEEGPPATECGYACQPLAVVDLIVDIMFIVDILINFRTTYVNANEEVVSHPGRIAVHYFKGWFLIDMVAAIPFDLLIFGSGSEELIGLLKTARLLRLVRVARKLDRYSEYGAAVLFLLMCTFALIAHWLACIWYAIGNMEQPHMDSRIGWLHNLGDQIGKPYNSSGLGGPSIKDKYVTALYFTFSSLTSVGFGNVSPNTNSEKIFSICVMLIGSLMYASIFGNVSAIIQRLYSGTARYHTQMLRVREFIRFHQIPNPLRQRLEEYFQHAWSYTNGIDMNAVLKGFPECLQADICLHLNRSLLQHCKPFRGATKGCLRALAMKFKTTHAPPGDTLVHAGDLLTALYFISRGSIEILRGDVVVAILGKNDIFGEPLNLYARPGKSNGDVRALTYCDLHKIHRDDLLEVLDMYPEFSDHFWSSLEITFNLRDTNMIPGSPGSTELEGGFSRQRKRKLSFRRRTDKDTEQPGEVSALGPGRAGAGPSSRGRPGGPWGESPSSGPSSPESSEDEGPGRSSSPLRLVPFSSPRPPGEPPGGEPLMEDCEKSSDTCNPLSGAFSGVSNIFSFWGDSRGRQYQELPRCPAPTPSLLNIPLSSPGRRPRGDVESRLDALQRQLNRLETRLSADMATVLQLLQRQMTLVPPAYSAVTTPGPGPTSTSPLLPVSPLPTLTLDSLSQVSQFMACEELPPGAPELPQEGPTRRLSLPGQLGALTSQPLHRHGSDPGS

As a reminder, the IC50 is the concentration needed to halve the response being measured. A word on the half-life: it is the time in which the quantity being followed falls by half. Read a low half-life as rapid decline. For orientation: clearance means a measure of how efficiently the substance is removed, as volume per time. High values mean efficient removal, low ones inefficient removal. Turning to `CC(O)(CO)C[C@](C)(N)COc1ccc(-c2ccnc(C(F)F)c2)nc1C(F)F` (single isomer, unassigned) [Compound 1-2], the IC50 is 13.7 µM at hERG potassium channel and ≤ 20 nM at AAK1. Further, in data set [1], the “Percentage of drug remaining after 60 min of incubation” value is > 99%. For the same compound, the AUC(0-t) came out at 4050 ng·h/mL in data set [2]; 630 ng·h/mL in data set [3] (mouse, iv, 2.5 mg/kg, Intravenous administration (2.5 mg/kg), read-out: AUC0-t); 3520 ng·h/mL in data set [3] (mouse, po, 10 mg/kg, Intragastric administration (10 mg/kg), read-out: AUC0-t). In addition, the half-life in data set [2] was 271 min; in data set [3] (mouse, iv, 2.5 mg/kg, Intravenous administration (2.5 mg/kg)), 152 min; in [3] (mouse, po, 10 mg/kg, Intragastric administration (10 mg/kg)), 185 min. In data set [3] (mouse, Intravenous administration (2.5 mg/kg)), this compound returned a clearance of 57.8 mL/min/kg. Moreover, the Vd in data set [3] (mouse, Intravenous administration (2.5 mg/kg), read-out: Vdss) worked out at 10.5 L/kg.

On to `COc1ncccc1-c1cnn2ccc(N3CCN(C(=O)OC(C)C)CC3)nc12` [LP-935509], for which the “pain responses in the mouse chronic constriction injury (CCI) model” value in data set [4] was “significantly attenuate”. The “pain responses in the mouse streptozotocin-induced diabetic neuropathy model” value in data set [5] is “significantly attenuate”. The “mechanical allodynia induced by SNL” value in data set [6] was “significantly attenuate”. Further, the “pain responses in phase II of the formalin model” value in [7] is recorded as “significantly attenuate”.

Take `COC(=O)[C@@]1(O)C[C@H]2O[C@]1(C)n1c3ccccc3c3c4c(c5c6ccccc6n2c5c31)C(=O)NC4` [Compound K252a]: in the data set on PC12 cells, the “ErbB4 accumulation in the plasma membrane or in close proximity to the plasma membrane” value is on record as “increased”, the ErbB4 expression result is “increased” and the neuregulin-1-induced neurite outgrowth result is “potentiates”.

The compound `CC(O)(CO)C[C@](C)(N)COc1ccc(-c2ccnc(C(F)F)c2)nc1C(F)F` (single isomer, unassigned) [Compound 1-1] registered a concentration for half-maximal inhibition (IC50) on hERG potassium channel of 6.73 µM. Further, the “Percentage of drug remaining after 60 min of incubation” value in data set [1] is 93.7%. The IC50 at AAK1 was ≤ 20 nM. Also, in data set [3] (setting [8]), the AUC(0-t) worked out at 4400 ng·h/mL and the T1/2 is recorded as 4.82 h.
